Laboratory results reported in ChEMBL document CHEMBL1151403, “Antimicrobial agents from higher plants. Dragon's blood resin” (1982).
The source made the active and inactive calls. The rule behind the calls is not given here.

Legend:
[1] = tested on: Staphylococcus aureus; assay: Antimicrobial activity against Staphylococcus aureus ATCC 13709 at 100 mcg/mL by agar dilution-streak method; format: functional, organism-based
[2] = tested on: Escherichia coli; assay: Antimicrobial activity against Escherichia coli ATCC 9637 at 100 mcg/mL by agar dilution-streak method; format: functional, organism-based
[3] = tested on: Salmonella enterica subsp. enterica serovar Gallinarum; assay: Antimicrobial activity against Salmonella gallinarum ATCC 9184 at 100 mcg/mL by agar dilution-streak method; format: functional, organism-based
[4] = tested on: Klebsiella pneumoniae; assay: Antimicrobial activity against Klebsiella pneumoniae ATCC 10031 at 100 mcg/mL by agar dilution-streak method; format: functional, organism-based
[5] = tested on: Mycolicibacterium smegmatis; assay: Antimicrobial activity against Mycobacterium smegmatis ATCC 607 at 100 mcg/mL by agar dilution-streak method; format: functional, organism-based
[6] = tested on: Candida albicans; assay: Antimicrobial activity against Candida albicans ATCC 10231 at 100 mcg/mL by agar dilution-streak method; format: functional, organism-based
[7] = tested on: Staphylococcus aureus; assay: Antimicrobial activity against Staphylococcus aureus ATCC 13709 by agar dilution-streak method; format: functional
[8] = tested on: Mycolicibacterium smegmatis; assay: Antimicrobial activity against Mycobacterium smegmatis ATCC 607 by agar dilution-streak method; format: functional
[9] = tested on: Candida albicans; assay: Antimicrobial activity against Candida albicans ATCC 10231 by agar dilution-streak method; format: functional
[10] = tested on: Klebsiella pneumoniae; assay: Antimicrobial activity against Klebsiella pneumoniae ATCC 10031 by agar dilution-streak method; format: functional

Compound	Activity [1]	Activity [2]	Activity [3]	Activity [4]	Activity [5]	Activity [6]	Activity [7]	Activity [8]	Activity [9]	Activity [10]
COc1cc(=O)cc2oc(-c3ccccc3)ccc1-2	inactive	inactive	inactive	inactive	inactive	inactive	–	–	–	–
COc1cc(O)cc2c1CC[C@H](c1ccccc1)O2	inactive	inactive	inactive	inactive	inactive	inactive	–	–	–	–
COc1cc2oc3c(C)c(=O)cc4oc(-c5ccccc5)cc(c2c2c1CC[C@@H](c1ccccc1)O2)c43 [DRACORUBIN]	–	inactive	inactive	inactive	–	–	50 µg/mL	25 µg/mL	12.5 µg/mL	–
COc1c2ccc(-c3ccccc3)oc-2cc(=O)c1C [DRACORHODIN]	–	inactive	inactive	–	–	–	50 µg/mL	25 µg/mL	25 µg/mL	100 µg/mL
COc1cc2oc3cc(=O)cc4oc(-c5ccccc5)cc(c2c2c1CC[C@@H](c1ccccc1)O2)c43	inactive	inactive	inactive	inactive	inactive	inactive	–	–	–	–
